Test results taken from patent US11285127B2, “Compositions and methods for lowering triglycerides without raising LDL-C levels in a subject on concomitant statin therapy” (Amarin Pharmaceuticals Ireland Limited, priority 2013, dated 2022).

Test system: patients with fasting triglyceride levels >200 mg/dl and <500 mg/dl despite statin therapy
Assay: 12-week study: apolipoproteins (Apo A-1, Apo B, ratio) and lipoprotein(a)
Assay type: in vivo, human
Conditions: for Apo A1 Week 12 EP Median (IQR) / Apo B Week 12 EP Median (IQR) / Apo B/Apo A1 ratio Week 12 EP Median (IQR) / Lp (a) Week 12 EP Median (IQR) / Apo A1 Percent change from Baseline Median (IQR) / Apo B Percent change from Baseline Median (IQR) / Apo B/Apo A1 ratio Percent change from Baseline Median (IQR) / Lp (a) Percent change from Baseline Median (IQR) / Apo A1 Difference from placebo Estimated median / Apo B Difference from placebo Estimated median / Apo B/Apo A1 ratio Difference from placebo Estimated median / Lp (a) Difference from placebo Estimated median: MITT; for Apo A1 Percent change from Baseline Median (IQR) / Apo B Percent change from Baseline Median (IQR) / Apo B/Apo A1 ratio Percent change from Baseline Median (IQR) / Lp (a) Percent change from Baseline Median (IQR): Week 12 endpoint; for Apo A1 Difference from placebo Estimated median / Apo B Difference from placebo Estimated median / Apo B/Apo A1 ratio Difference from placebo Estimated median / Lp (a) Difference from placebo Estimated median: percent change from baseline to Week 12 endpoint
Source text: Parameters (a)-(z) can be measured in accordance with any clinically acceptable methodology. For example, triglycerides, total cholesterol, HDL-C and fasting blood sugar can be sample from serum and analyzed using standard photometry techniques. VLDL-TG, LDL-C and VLDL-C can be calculated or determined using serum lipoprotein fractionation by preparative ultracentrifugation and subsequent quantitative analysis by refractometry or by analytic ultracentrifugal methodology. Apo A1, Apo B and hsCRP can be determined from serum using standard nephelometry techniques. Lipoprotein (a) can be determined from serum using standard turbidimetric immunoassay techniques. LDL particle number and particle size can be determined using nuclear magnetic resonance (NMR) spectrometry. Remnants lipoproteins and LDL-phospholipase A2 can be determined from EDTA plasma or serum and serum, respectively, using enzymatic immunoseparation techniques. Oxidized LDL, intercellular adhesion molecule-1 and interleukin-2 levels can be determined from serum using standard enzyme immunoassay techniques. These techniques are described in detail in standard textbooks, for example Tietz Fundamentals of Clinical Chemistry, 6th Ed. (Burtis, Ashwood and Borter Eds.), WB Saunders Company.
A multi-center, placebo-controlled, randomized, double-blind, 12-week study was performed to evaluate the efficacy and safety of >96% E-EPA in patients with fasting triglyceride levels >200 mg/dl and <500 mg/dl despite statin therapy (the mean of two qualifying entry values needed to be >185 mg/dl and at least one of the values needed to be >200 mg/dl). The primary objective of the study was to determine the efficacy of >96% E-EPA 2 g daily and 4 g daily, compared to placebo, in lowering fasting TG levels in patients with high risk for cardiovascular disease and with fasting TG levels 200 mg/dl and <500 mg/dl, despite treatment to LDL-C goal on statin therapy.
The primary efficacy variable for the double-blind treatment period was percent change in TG from baseline to Week 12 endpoint. The secondary efficacy variables for the double-blind treatment period included the following: • Percent changes in total cholesterol (TC), high-density lipoprotein cholesterol (HDL-C), LDL-C, calculated non-HDL-C, and very low-density lipoprotein cholesterol (VLDL-C) from baseline to Week 12 endpoint; • Percent change in very low-density lipoprotein TG from baseline to Week 12; • Percent changes in apolipoprotein A-I (Apo A-1), apolipoprotein B (Apo B), and Apo A-1/Apo B ratio from baseline to Week 12; • Percent changes in lipoprotein(a) from baseline to Week 12; • Percent changes in LDL particle number and size, measured by nuclear magnetic resonance, from baseline to Week 12; • Percent change in remnant-like particle cholesterol from baseline to Week 12; • Percent change in oxidized LDL from baseline to Week 12; • Changes in FPG and HbA1c from baseline to Week 12; • Change in insulin resistance, as assessed by the homeostasis model index insulin resistance, from baseline to Week 12; • Percent change in lipoprotein associated phospholipase A2 (Lp-PLA2) from baseline to Week 12; • Change in intracellular adhesion molecule-1 from baseline to Week 12; • Change in interleukin-2 from baseline to Week 12; • Change in plasminogen activator inhibitor-1 from baseline to Week 12. Note: this parameter will only be collected at sites with proper storage conditions; • Change in hsCRP from baseline to Week 12; and • Change in plasma concentration and red blood cell membrane content of fatty acid from baseline to Week 12 including EPA, docosapentaenoic acid (DPA), docosahexaenoic acid (DHA), arachidonic acid (AA), dihomo-γ-linolenic acid (DGLA), the ratio of EPA/AA, ratio of oleic acid/stearic acid (OA/SA), and the ratio of total omega-3 acids over total omega-6 acids. […]

[1] = IPE 4 g/day (n = 216), 12 weeks, patients with lipoprotein data

CC/C=C\C/C=C\C/C=C\C/C=C\C/C=C\CCCC(=O)OCC [AMR101, ethyl eicosapentaenoate]
Apo A1 Week 12 EP Median (IQR) (AMR101 2 g/d + statin): 141.0 (26.0) mg/dL | Apo B Week 12 EP Median (IQR) (AMR101 2 g/d + statin): 95.0 (24.0) mg/dL | Apo B/Apo A1 ratio Week 12 EP Median (IQR) (AMR101 2 g/d + statin): 0.7 (0.2) | Lp (a) Week 12 EP Median (IQR) (AMR101 2 g/d + statin): 12.0 (33.0) mg/dL | Apo A1 Percent change from Baseline Median (IQR) (AMR101 2 g/d + statin): 2.0 (13.0) % | Apo B Percent change from Baseline Median (IQR) (AMR101 2 g/d + statin): 1.6 (20.7) % | Apo B/Apo A1 ratio Percent change from Baseline Median (IQR) (AMR101 2 g/d + statin): 0.1 (18.3) % | Lp (a) Percent change from Baseline Median (IQR) (AMR101 2 g/d + statin): 0.0 (24.9) % | Apo A1 Difference from placebo Estimated median (AMR101 2 g/d + statin): −1.7% | Apo B Difference from placebo Estimated median (AMR101 2 g/d + statin): −3.8% | Apo B/Apo A1 ratio Difference from placebo Estimated median (AMR101 2 g/d + statin): −2.0% | Lp (a) Difference from placebo Estimated median (AMR101 2 g/d + statin): 0.0% | Apo A1 Week 12 EP Median (IQR) (AMR101 4 g/d + statin): 137.0 (29.0) mg/dL | Apo B Week 12 EP Median (IQR) (AMR101 4 g/d + statin): 90.0 (25.0) mg/dL | Apo B/Apo A1 ratio Week 12 EP Median (IQR) (AMR101 4 g/d + statin): 0.7 (0.2) | Lp (a) Week 12 EP Median (IQR) (AMR101 4 g/d + statin): 9.0 (31.0) mg/dL | Apo A1 Percent change from Baseline Median (IQR) (AMR101 4 g/d + statin): −2.9 (12.6) % | Apo B Percent change from Baseline Median (IQR) (AMR101 4 g/d + statin): −2.2 (16.4) % | Apo B/Apo A1 ratio Percent change from Baseline Median (IQR) (AMR101 4 g/d + statin): −0.7 (20.3) % | Lp (a) Percent change from Baseline Median (IQR) (AMR101 4 g/d + statin): 0.0 (10.0) % | Apo A1 Difference from placebo Estimated median (AMR101 4 g/d + statin): −6.9% | Apo B Difference from placebo Estimated median (AMR101 4 g/d + statin): −9.3% | Apo B/Apo A1 ratio Difference from placebo Estimated median (AMR101 4 g/d + statin): −2.4% | Lp (a) Difference from placebo Estimated median (AMR101 4 g/d + statin): 0.0% | Apo-B, Change From Baseline, % (median) [1]: −2.2% | Apo-B, End of Treatment (median) [1]: 90.0 mg/dL | Apo-B, Median Change From Baseline IPE 4 g/day vs Placebo, % (IPE 4 g/day vs placebo, 12 weeks, Hodges-Lehmann median): −8.8%
